Source: PubChem BioAssay (NCI)
“And” between values parts separate entries of the source, which are not always exact repeats. Equal values may be shown once.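 Exposure lasted 48 hours, with cells grown in 96-well plates and compounds tested at five concentrations. GI50 = concentration required for 50% inhibition of growth. The concentration for full growth arrest is given as TGI.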

How the values were obtained:
Assay in all cases: NCI anticancer screen, dose series, 48 h
SF-539 CNS = tested on: SF-539 CNS
A498 renal = tested on: A498 renal
UO-31 renal = tested on: UO-31 renal
NCI-H522 lung = tested on: NCI-H522 lung
CCRF-CEM leukemia = tested on: CCRF-CEM leukemia
HOP-62 NSCLC = tested on: HOP-62 NSCLC
HCT-116 colon = tested on: HCT-116 colon
HCT-15 colon = tested on: HCT-15 colon
NCI-H226 lung = tested on: NCI-H226 lung
HS 578T breast = tested on: HS 578T breast

SMILES	TGI (SF-539 CNS)	TGI (A498 renal) [µM]	TGI (UO-31 renal) [µM]	TGI (NCI-H522 lung)	TGI (CCRF-CEM leukemia)	TGI (HOP-62 NSCLC)	TGI (HCT-116 colon)	TGI (HCT-15 colon) [µM]	TGI (NCI-H226 lung)	GI50 (SF-539 CNS) [µM]	GI50 (UO-31 renal) [µM]	GI50 (HS 578T breast) [µM]	TGI (HS 578T breast) [µM]	GI50 (NCI-H522 lung) [µM]	GI50 (CCRF-CEM leukemia)	GI50 (HOP-62 NSCLC)	GI50 (HCT-116 colon) [µM]	GI50 (HCT-15 colon) [µM]	GI50 (NCI-H226 lung)	GI50 (A498 renal) [µM]
Cc1ccc(C2=[N+]([O-])c3ccccc3C2=O)cc1	77.7 µM	> 100	> 87.9	32.4 µM	25.9 µM	> 100 µM	> 54.4 µM	42	> 100 µM											
COC(=O)C1Cc2c(n(C)c3ccccc23)C(c2ccccc2)N1 (stereo unspecified)		> 100	> 100	93.1 µM	> 100 µM		> 100 µM	> 100	> 100 µM											
O=C1CCCSCCCC(=O)CCCSCCC1	> 100 µM		> 100	> 100 µM	> 100 µM	> 100 µM	> 100 µM	> 100												
NC(=O)c1csc(C2O[C@@H](COP(=O)(O)OP(=O)(O)OC[C@H]3OC(n4cnc5c(N)ncnc54)[C@H](O)[C@@H]3O)[C@H](O)[C@@H]2O)n1 (stereo partly specified)	> 100 µM	> 100	> 100	> 100 µM	> 100 µM	> 100 µM		> 100	> 100 µM											
NCCCn1c2c(c3ccccc3c1=O)C(=O)c1cc3c(cc1-2)OCO3	1.31 µM		1.99	4.79 µM	0.187 µM	12.2 µM		0.882	3.48 µM	0.242	0.265	0.687	4.31	0.474	0.0271 µM	0.278 µM	0.213	0.101	0.514 µM	
O=C(Nc1ccccc1)O/N=C1/CCCC/C1=C\c1ccccc1	31.7 µM	53.6	27	30.4 µM	33.1 µM	40.4 µM	26.6 µM	23.4	49.6 µM											
COc1ccc(-c2nc3sccn3c2/C=C/C(=O)c2cc(OC)c(OC)c(OC)c2)cc1OC	3.74 µM	8.2	8.19	3.77 µM	> 100 µM	6.68 µM	6.44 µM	> 100	9.84 µM	1.78	0.639			1.3	2.64 µM	2.58 µM	2.31	3.24	2.16 µM	2.6
O=C(O)CSCC(=O)c1ccccc1	> 100 µM	> 100	> 100	> 100 µM		> 100 µM	> 100 µM	> 100	> 100 µM				> 100							
O=[N+]([O-])c1ccc2c(c1)OCCOCCOc1ccc([N+](=O)[O-])cc1OCCOCCO2	> 100 µM	> 100	> 100	> 100 µM	> 100 µM	> 100 µM	> 100 µM	> 100	> 100 µM											
N#CC12CCC(O)C(CC1)C2=O (stereo unspecified)	> 100 µM	> 100	> 100	> 100 µM	> 100 µM	> 100 µM	> 100 µM	> 100	> 100 µM											
CCOC(=O)c1[nH]c2cccc3c2c1CC(Br)C3=O (stereo unspecified)	30.4 µM	32.3	19.2		> 100 µM	33.6 µM	7.79 µM	18.8	37.2 µM											
CS(=O)(=O)c1ccc(Oc2nccc(-c3c(-c4ccc(F)cc4)ncn3C3CCNCC3)n2)cc1	> 25 µM	> 25	> 25	> 25 µM		> 25 µM	> 25 µM	> 25		> 25	> 25	> 25	> 25	> 25		> 25 µM	> 25	> 25		> 25
CC(C)(C)c1ccc(Oc2ccc(C#N)c(C#N)c2)c(C(C)(C)C)c1	> 100 µM	> 100	> 77.7	60.6 µM	> 66.2 µM	> 100 µM	> 60.1 µM	31.3	> 100 µM											
O=C1C(c2ccc(Cl)cc2)=[N+]([O-])c2ccccc21	36 µM	86.9	> 100	21.9 µM	25.5 µM	78.5 µM	27.8 µM	41.3	47 µM											
O=C(O)C(Cc1ccccc1-c1ccccc1)C(=O)O	> 100 µM	> 100	> 100	> 100 µM			> 100 µM	> 100	> 100 µM				> 100							
O=C1C2c3[nH]c4ccccc4c3C3CCSCC3C2C(=O)N1c1ccccc1 (stereo unspecified)	> 100 µM	> 100	> 100	> 100 µM	> 100 µM	> 100 µM	> 100 µM	> 100	> 100 µM											
COc1c2c(c(OC)c3c(=O)cc(C/C(=N/NC(=O)C[n+]4ccccc4)C(=O)Nc4cc(C)ccc4C)oc13)OCO2	> 100 µM	> 100	> 100	> 100 µM	> 100 µM	> 100 µM	> 100 µM	> 100												
N.N.NCCCCN.O=C([O-])CC(=O)[O-].O=C([O-])CC(=O)[O-].[Pt+4].[Pt+4]	> 100 µM	> 100	> 100	62.5 µM	> 100 µM	> 100 µM	> 100 µM	> 100	> 100 µM	76.4	59.4			18.2	35.6 µM	> 100 µM	> 100	> 100	> 100 µM	> 100
CCN(CC)c1ccc2[nH]c3c(C(N)=O)cc(=O)c(=O)c=3oc2c1	14.1 µM	9.28	4.12		8.19 µM	15.4 µM	1.04 µM	> 100	7.54 µM	0.597	1.07	0.663	> 100		1.9 µM	0.445 µM	0.281	1.51	2.49 µM	1.92
Cc1ccc(C)c(NC(=O)CC2C(=O)Nc3ccccc3S2(=O)=O)c1 (stereo unspecified)	82.5 µM	> 100	> 100		> 100 µM		> 100 µM	> 100	> 100 µM											
O=C(Nc1cccc(C2=NCCN2)c1)c1ccc(OCCCOc2ccc(C(=O)Nc3cccc(C4=NCCN4)c3)cc2)cc1		8.37	> 100		> 100 µM	> 100 µM		> 100			13.5	2.55	6.6		4 µM	4.45 µM		20.2		2.3

SMILES	TGI (SF-539 CNS)	TGI (A498 renal) [µM]	TGI (UO-31 renal) [µM]	TGI (NCI-H522 lung)	TGI (CCRF-CEM leukemia)	TGI (HOP-62 NSCLC)	TGI (HCT-116 colon)	TGI (HCT-15 colon) [µM]	TGI (NCI-H226 lung)	GI50 (SF-539 CNS) [µM]	GI50 (UO-31 renal) [µM]	GI50 (HS 578T breast) [µM]	TGI (HS 578T breast) [µM]	GI50 (NCI-H522 lung) [µM]	GI50 (CCRF-CEM leukemia)	GI50 (HOP-62 NSCLC)	GI50 (HCT-116 colon) [µM]	GI50 (HCT-15 colon) [µM]	GI50 (NCI-H226 lung)	GI50 (A498 renal) [µM]
COC(=O)/C=C1\SC(=Nc2ccc(C(F)(F)F)cc2)N(CCc2c[nH]c3ccccc23)C1=O	3.02 µM	2.98	2.56	3.91 µM	7.22 µM		2.47 µM	2.95	3.62 µM	1.62	1.3			1.71	1.95 µM		1.21	1.38	1.87 µM	1.5
COC1CCC2C(=O)CCCC2O1 (stereo unspecified)	> 100 µM	> 100	> 100	> 100 µM		> 100 µM	> 100 µM	> 100	> 100 µM											
COCC1N=C(c2ccc(OC)c(OCc3ccccc3)c2OC)O[C@H]1c1ccccc1 (stereo partly specified)	35.8 µM	79.7	30.1	69.3 µM	60.8 µM	> 100 µM	34.5 µM	94.5	81.1 µM											
Cc1cc(S(=O)(=O)Nc2nnc(-c3ccco3)c(-c3ccco3)n2)c(SCc2ccccc2)cc1Cl	41.1 µM		50.4	65.7 µM	66.1 µM	53.3 µM	> 100 µM	43.3	69.9 µM	19.9	21.7	29.7	64.9	24.8	23.2 µM	25.5 µM	33.2	21.1	22.4 µM	
COC(=O)C/C(C)=C/[C@@H](O)[C@H]1O[C@@H]2CC/C(Cl)=C/C/C=C(/C)[C@H](OC(C)=O)CC(=O)O[C@@H]1C2	7.95 µM		> 25	> 25 µM		7.17 µM	7.85 µM	> 25	11.8 µM	1.32	1.85	0.546	2.14	1.29		2.5 µM	3.22	8.01	4.76 µM	
Brc1nc2c3ccccc3ncn2c1Br	> 100 µM	> 100	> 100	53.6 µM	> 100 µM	> 100 µM	> 100 µM	> 100	> 100 µM											
CCC12CCC(O)C1N(C)CCC2Sc1ccccc1 (stereo unspecified)	> 100 µM	> 100	> 100	> 100 µM	> 100 µM	> 100 µM	> 100 µM	> 100	> 100 µM											
Cc1cc(N(CCC#N)CCC#N)ccc1N=Nc1ccccc1[N+](=O)[O-]	> 100 µM	> 100	> 100	> 100 µM	> 100 µM	> 100 µM		> 100	> 100 µM											
CN(C)CCN1N=Nc2cccc3cccc1c23	> 100 µM	> 100	> 100	> 100 µM	> 78.8 µM	> 100 µM	> 100 µM	> 100	> 100 µM											
N#C[C@]12CC3(CC[C@H]1CC1(C2)OCCO1)OCCO3	> 100 µM	> 100	> 100	> 100 µM	> 100 µM	> 100 µM	> 100 µM	> 100	> 100 µM											
O=NN(CCCl)C(=O)NCc1ccc[n+]([O-])c1	> 100 µM				> 100 µM	> 100 µM	> 100 µM	> 100	> 100 µM											
CC1=CCP(C(F)(F)F)P(C(F)(F)F)C1 (stereo unspecified)	> 100 µM	> 100	> 100	> 100 µM	> 100 µM	> 100 µM	> 100 µM	> 100	> 100 µM											
C=CC[P@@]1(=O)O[C@H](c2ccccc2)C(C)N1C(C)C (stereo partly specified)	> 100 µM	> 100	> 100		> 100 µM			> 100	> 100 µM											
Cc1c2cc[n+](C)cc2c(C)c2c1[nH]c1ccc(OC(C)C)cc12	9.82 µM and 12.5 µM	> 46.8	> 100	3.8 µM and 8.1 µM	23.9 µM and > 64.7 µM	19.9 µM and 27.3 µM	> 35.8 µM and 20.4 µM	> 100	2.42 µM and 6.12 µM						2.59 µM and 15.9 µM	1.23 µM and 3.13 µM			0.395 µM and 1.07 µM	
O=C(c1ccccc1)c1ccc2cccc(O)c2n1	> 100 µM		> 100	39.8 µM	51.8 µM	> 100 µM	35.1 µM	> 100	> 100 µM											
CCCCCCC(O)C/C=C/CCCCCC/C(C(=O)OC)=C(/O)C(=O)OCC (stereo unspecified)	> 100 µM	> 100	> 100	> 100 µM	> 100 µM	> 100 µM	> 100 µM	> 100	> 100 µM											
COC(=O)C(=O)C(C(=O)C(=O)Nc1ccc([N+](=O)[O-])cc1[N+](=O)[O-])c1nc2ccc([N+](=O)[O-])cc2[nH]c1=O (stereo unspecified)		> 100	> 100	> 100 µM	> 100 µM	> 100 µM	> 100 µM	> 100	> 100 µM											
N#Cc1c2ccccc2c2nnc3cc(C(F)(F)F)ccc3n12			> 100			58.3 µM	> 100 µM	> 100			70.3					27.6 µM	25.4	93.4		
O=C1NC(=O)C2=C1CCC2O (stereo unspecified)	> 100 µM	> 100	> 100		> 100 µM	> 100 µM	> 100 µM	> 100	> 100 µM				> 100							
Cc1ccc(C)c(-n2c(-c3ccc(Br)cc3)csc2=NC(=O)c2ccccc2F)c1	> 100 µM	> 100	> 100			> 100 µM	> 100 µM	> 100	> 100 µM	> 100	> 100	> 100	> 100			> 100 µM	3.1	> 100	> 100 µM	> 100
